Biological target: TNFα (Homo sapiens, UniProt P01375)
Experiment: TNFα Induced HEK Blue Cellular Assay
Assay type: cell-based
Conditions: HEK Blue TNFα reporter cells, TNFα 100 pg/ml, 24 hrs at 37° C., secreted alkaline phosphatase (QUANTI-Blue) read at 620 nm; read-out: IC50 value
Method: TNFα Induced HEK Blue Cellular Assay
Test articles were diluted in DMSO and serially diluted into 384 well assay plate (Corning 3765), at final concentrations ranging from […] to 0.5 nM. HEK Blue™ TNFα reporter cells were added at a final density of 10,000 cell per well in assay media [DMEM (Gibco, cat #21063-029), 10% fetal bovine serum (ExcelBio, cat #FND500), 1% Penicillin-Streptomycin (Solarbio, cat #P1400-100]. TNFα (R&D 210-TA-020/CF) was then added to the assay plate at a final concentration of 100 pg/ml. This plate was then incubated for 24 hrs at 37° C. and 5% CO2. Secreted alkaline phosphatase expression was then measured using QUANTI-Blue™ (Invivogen), according to manufacturer instructions and read on an Envision microplate reader at 620 nm.
Inhibition data for test compound over a range of concentration was plotted as percentage inhibition of the test compound (100%=maximum inhibition). IC50 values were determined after correcting for background [(sample read−mean of low control)/(mean of high control−mean of low control)] where by the low control is DMSO without stimulation and high control is DMSO with stimulation. The IC50 is defined as the concentration of test compound which produces 50% inhibition and was quantified using the 4 parameter logistic equation to fit the data.

Sequence of TNFα (P01375 77-233 limits assumed): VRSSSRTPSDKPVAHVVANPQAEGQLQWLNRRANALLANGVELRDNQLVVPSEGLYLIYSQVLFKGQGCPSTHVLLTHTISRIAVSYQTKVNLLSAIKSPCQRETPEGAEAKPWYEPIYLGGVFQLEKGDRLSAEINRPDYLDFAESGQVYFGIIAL

Row | Compound | IC50 [nM]
1 | CN1C(=O)c2cccc(OC(F)F)c2[C@H]2C[C@@H]1c1nc3ccc(-c4ccc(NP(C)(C)=O)cc4)cc3n12 [Example 50, (1R,11R)-18-(difluoromethoxy)-5-{4-[(dimethylphosphoryl)amino]phenyl}-12-methyl-2,9,12-triazapentacyclo[9.8.1.0^{2,10}.0^{3,8}.0^{14,19}]icosa-3(8),4,6,9,14(19),15,17-heptaen-13-one] | < 100
2 | [2H]C([2H])([2H])N1C(=O)c2cccc(OC(F)F)c2[C@H]2C[C@@H]1c1nc3ccc(-c4ccc(P(C)(C)=O)nc4)cc3n12 [Example 17, (7R,14R)-1-(difluoromethoxy)-11-(6-(dimethylphosphoryl)pyridin-3-yl)-6-(methyl-d3)-6,7-dihydro-7,14-methanobenzo[f]benzo[4,5]imidazo[1,2-a][1,4]diazocin-5(14H)-one] | < 100
3 | [2H]C([2H])([2H])N1C(=O)c2cccc(OC(F)F)c2[C@H]2C[C@@H]1c1nc3ccc(-c4cc(N)c(P(C)(C)=O)c(F)c4)cc3n12 [Example 131, (7R,14R)-11-(3-amino-4-(dimethylphosphoryl)-5-fluorophenyl)-1-(difluoromethoxy)-6-(methyl-d3)-6,7-dihydro-7,14-methanobenzo[f]benzo[4,5]imidazo[1,2-a][1,4]diazocin-5(14H)-one] | 10000 to 30000
4 | [2H]C([2H])([2H])N1C(=O)c2cccc(OC(F)F)c2[C@H]2C[C@@H]1c1nc3ccc(-c4cc(C)c(P(C)(C)=O)c(F)c4)cc3n12 [Example 106, (7R,14R)-1-(difluoromethoxy)-11-(4-(dimethylphosphoryl)-3-fluoro-5-methylphenyl)-6-(methyl-d3)-6,7-dihydro-7,14-methanobenzo[f]benzo[4,5]imidazo[1,2-a][1,4]diazocin-5(14H)-one] | < 100
5 | [2H]C([2H])([2H])N1C(=O)c2cccc(OC(F)F)c2[C@H]2C[C@@H]1c1nc3ccc(-c4ccc(C(C)P(C)(C)=O)nc4)cc3n12 (stereo partly drawn) [Example 116, (7R,14R)-1-(difluoromethoxy)-11-(6-(1-(dimethylphosphoryl)ethyl)pyridin-3-yl)-6-(methyl-d3)-6,7-dihydro-7,14-methanobenzo[f]benzo[4,5]imidazo[1,2-a][1,4]diazocin-5(14H)-one] | < 100
6 | [2H]C([2H])([2H])N1C(=O)c2cccc(OC(F)F)c2[C@H]2C[C@@H]1c1nc3ccc(-c4cnc(P(=O)(CC)CC)c(F)c4)cc3n12 [Example 127, (7R,14R)-11-(6-(diethylphosphoryl)-5-fluoropyridin-3-yl)-1-(difluoromethoxy)-6-(methyl-d3)-6,7-dihydro-7,14-methanobenzo[f]benzo[4,5]imidazo[1,2-a][1,4]diazocin-5(14H)-one] | < 100
7 | [2H]C([2H])([2H])N1C(=O)c2cccc(OC(F)F)c2[C@H]2C[C@@H]1c1nc3ccc(-c4ccc(C(O)P(=O)(CC)CC)cc4)cc3n12 (stereo partly drawn) [Example 101, (7R,14R)-11-(4-((diethylphosphoryl)(hydroxy)methyl)phenyl)-1-(difluoromethoxy)-6-(methyl-d3)-6,7-dihydro-7,14-methanobenzo[f]benzo[4,5]imidazo[1,2-a][1,4]diazocin-5(14H)-one] | < 100
8 | [2H]C([2H])([2H])N1C(=O)c2cccc(OC(F)F)c2[C@H]2C[C@@H]1c1nc3ccc(-c4ccc(P(C)(C)=O)c(F)c4)c(F)c3n12 [Example 139, (7R,14R)-1-(difluoromethoxy)-11-(4-(dimethylphosphoryl)-3-fluorophenyl)-12-fluoro-6-(methyl-d3)-6,7-dihydro-7,14-methanobenzo[f]benzo[4,5]imidazo[1,2-a][1,4]diazocin-5(14H)-one] | < 100
9 | CP(C)(=O)c1ncc(-c2ccc3nc4n(c3c2)[C@@H]2C[C@H]4NC(=O)c3cccc(OC(F)F)c32)cn1 [Example 1, (7R,14R)-1-(difluoromethoxy)-11-(2-(dimethylphosphoryl)pyrimidin-5-yl)-6,7-dihydro-7,14-methanobenzo[f]benzo[4,5]imidazo[1,2-a][1,4]diazocin-5(14H)-one] | 100 to 1000
10 | CN1C(=O)c2cccc(OC(F)F)c2[C@H]2C[C@@H]1c1nc3ccc(-c4ccc(OCP(C)(C)=O)nc4)cc3n12 [Example 7, (1R,11R)-18-(difluoromethoxy)-5-{6-[(dimethylphosphoryl)methoxy]pyridin-3-yl}-12-methyl-2,9,12-triazapentacyclo[9.8.1.0^{2,10}.0^{3,8}.0^{14,19}]icosa-3(8),4,6,9,14(19),15,17-heptaen-13-one] | < 100
11 | [2H]C([2H])([2H])N1C(=O)c2cccc(OC(F)F)c2[C@H]2C[C@@H]1c1nc3ccc(-c4ccc(P(C)(C)=O)c(C(F)F)c4)cc3n12 [Example 103, (7R,14R)-1-(difluoromethoxy)-11-(3-(difluoromethyl)-4-(dimethylphosphoryl)phenyl)-6-(methyl-d3)-6,7-dihydro-7,14-methanobenzo[f]benzo[4,5]imidazo[1,2-a][1,4]diazocin-5(14H)-one] | < 100
12 | CN1C(=O)c2cccc(OC(F)F)c2[C@H]2C[C@@H]1c1nc3ccc(-c4ccc(CP(C)(C)=O)cc4F)cc3n12 [Example 80, (7R,14R)-1-(difluoromethoxy)-11-(4-((dimethylphosphoryl)methyl)-2-fluorophenyl)-6-methyl-6,7-dihydro-7,14-methanobenzo[f]benzo[4,5]imidazo[1,2-a][1,4]diazocin-5(14H)-one] | < 100
13 | [2H]C([2H])([2H])N1C(=O)c2cccc(OC(F)F)c2[C@H]2C[C@@H]1c1nc3ccc(-c4ccc(P(C)(C)=O)c(F)c4C)cc3n12 [Example 90, (7R,14R)-1-(difluoromethoxy)-11-(4-(dimethylphosphoryl)-3-fluoro-2-methylphenyl)-6-(methyl-d3)-6,7-dihydro-7,14-methanobenzo[f]benzo[4,5]imidazo[1,2-a][1,4]diazocin-5(14H)-one] | < 100
14 | [2H]C([2H])([2H])N1C(=O)c2cccc(OC(F)F)c2[C@H]2C[C@@H]1c1nc3ccc(-c4ccc(P(C)(C)=O)c(C(F)(F)F)c4)cc3n12 [Example 122, (7R,14R)-1-(difluoromethoxy)-11-(4-(dimethylphosphoryl)-3-(trifluoromethyl)phenyl)-6-(methyl-d3)-6,7-dihydro-7,14-methanobenzo[f]benzo[4,5]imidazo[1,2-a][1,4]diazocin-5(14H)-one] | 100 to 1000

Continued, values first:

Row | IC50 [nM] | Compound
15 | < 100 | [2H]C([2H])([2H])N1C(=O)c2cccc(OC(F)F)c2[C@H]2C[C@@H]1c1nc3c(F)cc(-c4ccc(P(C)(C)=O)c(F)c4)cc3n12 [Example 135, (7R,14R)-1-(difluoromethoxy)-11-(4-(dimethylphosphoryl)-3-fluorophenyl)-9-fluoro-6-(methyl-d3)-6,7-dihydro-7,14-methanobenzo[f]benzo[4,5]imidazo[1,2-a][1,4]diazocin-5(14H)-one]
16 | < 100 | [2H]C([2H])([2H])N1C(=O)c2cccc(OC(F)F)c2[C@H]2C[C@@H]1c1nc3ccc(-c4ccc(P(C)(C)=O)cc4C(F)F)cc3n12 [Example 102, (7R,14R)-1-(difluoromethoxy)-11-(2-(difluoromethyl)-4-(dimethylphosphoryl)phenyl)-6-(methyl-d3)-6,7-dihydro-7,14-methanobenzo[f]benzo[4,5]imidazo[1,2-a][1,4]diazocin-5(14H)-one]
17 | < 100 | CN1C(=O)c2cccc(OC(F)F)c2[C@H]2C[C@@H]1c1nc3ccc(-c4ccc(CP(C)(C)=O)cc4)cc3n12 [Example 33, (1R,11R)-18-(difluoromethoxy)-5-{4-[(dimethylphosphoryl)methyl]phenyl}-12-methyl-2,9,12-triazapentacyclo[9.8.1.0^{2,10}.0^{3,8}.0^{14,19}]icosa-3(8),4,6,9,14(19),15,17-heptaen-13-one]
18 | < 100 | [2H]C([2H])([2H])N1C(=O)c2cccc(OC(F)F)c2[C@H]2C[C@@H]1c1nc3ccc(-c4cnc(P(C)(C)=O)cc4Cl)cc3n12 [Example 93, (7R,14R)-11-(4-chloro-6-(dimethylphosphoryl)pyridin-3-yl)-1-(difluoromethoxy)-6-(methyl-d3)-6,7-dihydro-7,14-methanobenzo[f]benzo[4,5]imidazo[1,2-a][1,4]diazocin-5(14H)-one]
19 | < 100 | [2H]C([2H])([2H])N1C(=O)c2cccc(OC(F)F)c2[C@H]2C[C@@H]1c1nc3ccc(-c4ccc([C@H](C)P(C)(C)=O)c(F)c4C)cc3n12 (single isomer, unassigned) [Example 114, (7R,14R)-1-(difluoromethoxy)-11-(4-((S or R)-1-(dimethylphosphoryl)ethyl)-3-fluoro-2-methylphenyl)-6-(methyl-d3)-6,7-dihydro-7,14-methanobenzo[f]benzo[4,5]imidazo[1,2-a][1,4]diazocin-5(14H)-one]
20 | < 100 | CN1C(=O)c2cccc(OC(F)F)c2[C@H]2C[C@@H]1c1nc3ccc(-c4ccc(P(C)(C)=O)cc4)cc3n12 [Example 13, (1R,11R)-18-(difluoromethoxy)-5-[4-(dimethylphosphoryl)phenyl]-12-methyl-2,9,12-triazapentacyclo[9.8.1.0^{2,10}.0^{3,8}.0^{14,19}]icosa-3(8),4,6,9,14(19),15,17-heptaen-13-one]

From patent publication US12384808B2, “Modulators of TNF-α activity” (Forward Therapeutics, Inc., priority 2022, dated 2025)
